# Read-outs that look alike come from different tables or passages of the source.
# Assays:
# Tetranychus urticae = Tetranychus urticae spray test, OP-resistant (TETRUR); assay type: in vivo; conditions: 500 g/ha, bean leaf discs, after 6 days
# Procedure: Tetranychus urticae—spray test, OP-resistant (TETRUR) • Solvent: 78.0 parts by weight of acetone 1.5 parts by weight of dimethylformamide • Emulsifier: alkylaryl polyglycol ether
# (§1) To produce a suitable preparation of active compound, 1 part by weight of active compound is dissolved using the stated parts by weight of solvent and made up with water containing an emulsifier concentration of 1000 ppm until the desired concentration is attained. To produce further test concentrations, the preparation is diluted with emulsifier-containing water.
# Discs of bean leaves (Phaseolus vulgaris) infested by all stages of the greenhouse red spider mite (Tetranychus urticae) are sprayed with an active compound formulation of the desired concentration.
# After 6 days, the efficacy in % is determined. 100% means that all the spider mites have been killed; 0% means that no spider mites have been killed.
# Haemonchus contortus = Haemonchus contortus test (HAEMCO); assay type: in vivo; conditions: 20 ppm, larvae of the red stomach worm, after 5 days
# Procedure: Haemonchus contortus—test (HAEMCO)
# (§2) Solvent: dimethyl sulphoxide
# (§3) To produce a suitable preparation of active compound, 10 mg of active compound are mixed with 0.5 ml of dimethyl sulphoxide and the concentrate is diluted with “Ringer's solution” to the desired concentration.
# Vessels containing the active compound preparation of the desired concentration are populated with about 40 larvae of the red stomach worm (Haemonchus contortus).
# (§4) After 5 days, the kill in % is determined. 100% means that all the larvae has been killed; 0% means that none of the larvae has been killed.
# Meloidogyne incognita = Meloidogyne incognita test (MELGIN); assay type: in vivo; conditions: 20 ppm, lettuce, after 14 days
# Procedure: Meloidogyne incognita test (MELGIN)
# Solvent: 125.0 parts by weight of acetone
# To produce a suitable active compound formulation, 1 part by weight of active compound is mixed with the stated amount of solvent and the concentrate is diluted with water to the desired concentration.
# Vessels are filled with sand, active compound solution, an egg/larvae suspension of the southern root-knot nematode (Meloidogyne incognita) and lettuce seeds. The lettuce seeds germinate and the plants develop. The galls develop on the roots.
# After 14 days, the nematicidal efficacy in % is determined by the formation of galls. 100% means that no galls were found; 0% means that the number of galls on the treated plants corresponds to the untreated control.
# Cooperia curticei = Cooperia curticei test (COOPCU); assay type: in vivo; conditions: 20 ppm, nematode larvae, after 5 days
# Procedure: Cooperia curticei test (COOPCU)
# as §2, §3
# Vessels containing the active compound preparation of the desired concentration are populated with about 40 nematode larvae (Cooperia curticei).
# as §4
# [1] = Determination of log P values by HPLC on reversed-phase column (C18); assay type: physicochemical
# Procedure: Unless indicated otherwise, the following method was used to determine the log P values and masses: The determination of the given log P values was carried out in accordance with EEC Directive 79/831 Annex V.A8 by HPLC (High Performance Liquid Chromatography) on a reversed-phase column (C18). […] Mass detection is effected by means of an Agilend MSD system.
# Phaedon cochleariae = Phaedon cochleariae spray test (PHAECO); assay type: in vivo; conditions: 500 g/ha, Chinese cabbage leaf discs, after 7 days
# Procedure: Phaedon cochleariae—spray test (PHAECO) • Solvent: 78.0 parts by weight of acetone 1.5 parts by weight of dimethylformamide • Emulsifier: alkylaryl polyglycol ether
# as §1
# After 7 days, the efficacy in % is determined. 100% means that all the beetle larvae have been killed; 0% means that no beetle larvae have been killed.
# Boophilus microplus = Boophilus microplus injection test (BOOPMI inj); assay type: in vivo; conditions: 20 μg/animal, injection into engorged adult female cattle ticks, assessed after 7 days
# Procedure: Boophilus microplus—injection test (BOOPMI inj)
# as §2
# To produce a suitable preparation of active compound, 10 mg of active compound are mixed with 0.5 ml of solvent and the concentrate is diluted with solvent to the desired concentration.
# 1 μl of the active compound solution is injected into the abdomen of 5 engorged adult female cattle ticks (Boophilus microplus). The animals are transferred into dishes and kept in a climate-controlled room.
# Efficacy is assessed after 7 days by laying of fertile eggs. Eggs which are not visibly fertile are stored in a climate-controlled cabinet until the larvae hatch after about 42 days. An efficacy of 100% means that none of the ticks has laid any fertile eggs; 0% means that all the eggs are fertile.
# [2] = formic acid method, read-out: log P(HCOOH)
# [3] = neutral, read-out: log P(neutral)
"chromatographic logP [1, 2]","chromatographic logP [1, 3]",Structure (SMILES),efficacy (kill in %) (Haemonchus contortus) [%],further results
–,–,O=C(Nc1cnn(-c2c(F)cc(Cl)cc2F)c1Cl)c1ccccc1I [I-1-44],–,efficacy (spider mites killed) (Tetranychus urticae): 95%
–,–,O=C(Nc1cnn(-c2ncccc2Br)c1)c1ccccc1Cl [I-1-30],–,efficacy (beetle larvae killed) (Phaedon cochleariae): 83%
3.61,3.58,"CC(C)(C)OC(=O)Nc1cnn(-c2c(F)cccc2F)c1C(F)(F)F [tert-Butyl [1-(2,6-difluorophenyl)-5-(trifluoromethyl)-1H-pyrazol-4-yl]carbamate]",–,–
2.14,2.13,"Nc1cnn(-c2c(F)cccc2F)c1C(F)(F)F [1-(2,6-Difluorophenyl)-5-(trifluoromethyl)-1H-pyrazole-4-amine]",–,–
–,–,O=C(Nc1cnn(-c2ccccc2F)c1)c1ccccc1I [I-1-7],90,nematicidal efficacy (formation of galls) (Meloidogyne incognita): 90%; efficacy (kill in %) (Cooperia curticei): 90%; efficacy (beetle larvae killed) (Phaedon cochleariae): 83%
–,–,O=C(Nc1cnn(-c2c(F)cccc2F)c1)c1c(F)cccc1C(F)(F)F [I-1-42],100,efficacy (kill in %) (Cooperia curticei): 80%
–,–,O=C(Nc1cnn(-c2ncccc2F)c1)c1ccccc1C(F)(F)F [I-1-10],90,nematicidal efficacy (formation of galls) (Meloidogyne incognita): 90%; efficacy (laying of fertile eggs) (Boophilus microplus): 100%
2.37,2.33,"N#Cc1cccc(F)c1-n1cc(NC(=O)c2ccccc2C(F)(F)F)cn1 [I-1-52, N-[1-(2-Cyano-6-fluorophenyl)-1H-pyrazol-4-yl]-2-(trifluoromethyl)benzamide]",–,–
–,–,O=C(Nc1cnn(-c2cc(F)cnc2F)c1)c1ccccc1I [I-1-33],–,efficacy (kill in %) (Cooperia curticei): 80%
–,–,O=C(Nc1cnn(-c2ncccc2Br)c1)c1ccccc1C(F)(F)F [I-1-29],–,efficacy (kill in %) (Cooperia curticei): 80%
–,–,O=C(Nc1cnn(-c2ncccc2F)c1)c1ccccc1Cl [I-1-17],–,nematicidal efficacy (formation of galls) (Meloidogyne incognita): 100%
–,–,O=C(Nc1cnn(-c2ncccc2Cl)c1)c1ccccc1I [I-1-22],100,–
–,–,N#Cc1cccc(C#N)c1-n1cc(NC(=O)c2ccccc2C(F)(F)F)cn1 [I-1-68],–,nematicidal efficacy (formation of galls) (Meloidogyne incognita): 100%
–,–,O=C(Nc1cnn(-c2c(F)cccc2C(F)(F)F)c1)c1ccccc1C(F)(F)F [I-1-53],–,efficacy (kill in %) (Cooperia curticei): 100%
–,–,O=C(Nc1cnn(-c2cnc(F)c(F)c2)c1)c1c(F)cccc1C(F)(F)F [I-1-36],–,efficacy (kill in %) (Cooperia curticei): 100%
2.35,2.35,"Nc1cnn(-c2c(F)cc(F)cc2F)c1C(F)(F)F [5-(Trifluoromethyl)-1-(2,4,6-trifluorophenyl)-1H-pyrazole-4-amine]",–,–
–,–,O=C(Nc1cnn(-c2ncccc2Br)c1)c1c(F)cccc1F [I-1-31],–,efficacy (beetle larvae killed) (Phaedon cochleariae): 100%
2.1,0.13,"O=C(O)c1cnn(-c2c(F)cccc2F)c1C(F)(F)F [1-(2,6-Difluorophenyl)-5-(trifluoromethyl)-1H-pyrazole-4-carboxylic acid]",–,–

"chromatographic logP [1, 2]","chromatographic logP [1, 3]",Structure (SMILES),efficacy (kill in %) (Haemonchus contortus) [%],further results
–,–,O=C(Nc1cnn(-c2c(F)cccc2Cl)c1)c1ccccc1C(F)(F)F [I-1-60],–,nematicidal efficacy (formation of galls) (Meloidogyne incognita): 90%
1.21,1.22,O=C(Nc1cn[nH]c1)c1ccccc1C(F)(F)F [N-(1H-Pyrazol-4-yl)-2-(trifluoromethyl)benzamide],–,–
0.09,0.89,"Nc1cnn(-c2c(F)cccc2F)c1 [1-(2,6-Difluorophenyl)-1H-pyrazole-4-amine]",–,–
–,–,O=C(Nc1cnn(-c2ncccc2Cl)c1)c1ccccc1Cl [I-1-23],90,nematicidal efficacy (formation of galls) (Meloidogyne incognita): 90%; efficacy (beetle larvae killed) (Phaedon cochleariae): 100%
–,–,O=C(Nc1cnn(-c2ncccc2F)c1)c1c(F)cccc1C(F)(F)F [I-1-18],80,–
0.15,1.44,"NNc1c(F)cc(Cl)cc1F [(4-chloro-2,6-difluorophenyl)hydrazine]",–,–
–,–,O=C(Nc1cnn(-c2c(F)cccc2F)c1)c1ccccc1Cl [I-1-41],–,efficacy (beetle larvae killed) (Phaedon cochleariae): 100%
2.36,2.34,"Fc1cc(Cl)cc(F)c1-n1cccn1 [1-(4-chloro-2,6-difluorophenyl)pyrazole]",–,–
–,–,O=C(Nc1cnn(-c2ccccc2F)c1)c1ccccc1C(F)(F)F [I-1-8],100,nematicidal efficacy (formation of galls) (Meloidogyne incognita): 90%; efficacy (kill in %) (Cooperia curticei): 100%
–,–,O=C(Nc1cnn(-c2c(F)cccc2F)c1)c1ccccc1Br [I-1-40],90,efficacy (kill in %) (Cooperia curticei): 80%
–,–,O=C(Nc1cnn(-c2ncccc2Cl)c1)c1ccccc1C(F)(F)F [I-1-24],100,efficacy (kill in %) (Cooperia curticei): 90%
–,–,O=C(Nc1cnn(-c2ncccc2Cl)c1)c1c(F)cccc1C(F)(F)F [I-1-25],100,efficacy (kill in %) (Cooperia curticei): 90%
–,–,O=C(Nc1cnn(-c2ncccc2Cl)c1)c1ccccc1Br [I-1-26],100,–
3.56,3.52,"CCOC(=O)c1cnn(-c2c(F)cccc2F)c1C(F)(F)F [Ethyl 1-(2,6-difluorophenyl)-5-(trifluoromethyl)-1H-pyrazole-4-carboxylate]",–,–
–,–,O=C(Nc1cnn(-c2ncccc2F)c1)c1ccccc1Br [I-1-16],–,nematicidal efficacy (formation of galls) (Meloidogyne incognita): 90%
2.74,2.72,"O=[N+]([O-])c1cnn(-c2c(F)cc(Cl)cc2F)c1 [1-(4-Chloro-2,6-difluorophenyl)-4-nitro-1H-pyrazole]",–,–
2.08,2.14,"Nc1cnn(-c2c(F)cc(Cl)cc2F)c1Cl [5-Chloro-1-(4-chloro-2,6-difluorophenyl)-1H-pyrazole-4-amine]",–,–
–,–,O=C(Nc1cnn(-c2c(F)cccc2F)c1)c1cccnc1C(F)(F)F [I-1-58],80,–

Structure (SMILES),"chromatographic logP [1, 2]","chromatographic logP [1, 3]",efficacy (kill in %) (Haemonchus contortus) [%],further results
"O=C(Nc1cnn(-c2c(F)cccc2F)c1)c1ccccc1C(F)(F)F [I-1-9, N-[1-(2,6-Difluorophenyl)-1H-pyrazol-4-yl]-2-(trifluoromethyl)benzamide]",2.45,2.36,100,nematicidal efficacy (formation of galls) (Meloidogyne incognita): 100%; efficacy (kill in %) (Cooperia curticei): 100%

# From patent US9815792B2, “Method for producing carboxamides” (BAYER CROPSCIENCE AKTIENGESELLSCHAFT, priority 2014, dated 2017)
